Reference: patent US11458138B2 (Novartis AG, priority 2017, dated 2022)
Values belong to the compound of their own block, whether it stands above or below them.

Assays:
[1] = test system: corneal endothelium cell population; assay: FACS analysis of expanded corneal endothelium cell population (CD73, CD44, CD166, CD105); format: cell-based, human; conditions: vs CECs cultured without LATS inhibitor (high levels)
Excerpt: FIG. 21: FACS analysis of the corneal endothlelium cell population expanded in the presence of the LATS inhibitor, compound ex. 47, and CECs cultured in the absence of a LATS inhibitor. The cell population expanded in the presence of the LATS inhibitor expresses low levels of CD73 (FIG. 21a, grey line), CD44 (FIG. 21b, grey line), CD166 (FIG. 21c, grey line) and CD105 (FIG. 21d, grey line); while the cell population cultured without the LATS inhibitor expresses high levels of CD44, CD73, CD105 and CD166 (black lines).
(4) The cells express relatively low levels of CD73. The relative expression levels are lower than cells which have undergone endothelial to mesenchymal transition. The expression of CD73 may be estimated by standard techniques known in the art, such as for example FACS analysis or immunohistochemistry.

[2] = test system: limbal stem cells (LSCs); assay: Differentiation of expanded LSCs into corneal epithelium cells (p63alpha / keratin 12); format: cell-based, human; conditions: transferred to conditions that enable differentiation
Excerpt: Shown are views where the transition from the p63alpha-positive cell identity to the keratin-12 identity are occurring.
These characteristics can be observed by immunohistochemistry or FACS.

[3] = target: LATS1 (Homo sapiens (Human), UniProt O95835); assay: LATS1 biochemical assay (Table 1A, Compound Examples 1-290; method in the earlier part)
Chain of LATS1 (O95835 whole entry, looked up): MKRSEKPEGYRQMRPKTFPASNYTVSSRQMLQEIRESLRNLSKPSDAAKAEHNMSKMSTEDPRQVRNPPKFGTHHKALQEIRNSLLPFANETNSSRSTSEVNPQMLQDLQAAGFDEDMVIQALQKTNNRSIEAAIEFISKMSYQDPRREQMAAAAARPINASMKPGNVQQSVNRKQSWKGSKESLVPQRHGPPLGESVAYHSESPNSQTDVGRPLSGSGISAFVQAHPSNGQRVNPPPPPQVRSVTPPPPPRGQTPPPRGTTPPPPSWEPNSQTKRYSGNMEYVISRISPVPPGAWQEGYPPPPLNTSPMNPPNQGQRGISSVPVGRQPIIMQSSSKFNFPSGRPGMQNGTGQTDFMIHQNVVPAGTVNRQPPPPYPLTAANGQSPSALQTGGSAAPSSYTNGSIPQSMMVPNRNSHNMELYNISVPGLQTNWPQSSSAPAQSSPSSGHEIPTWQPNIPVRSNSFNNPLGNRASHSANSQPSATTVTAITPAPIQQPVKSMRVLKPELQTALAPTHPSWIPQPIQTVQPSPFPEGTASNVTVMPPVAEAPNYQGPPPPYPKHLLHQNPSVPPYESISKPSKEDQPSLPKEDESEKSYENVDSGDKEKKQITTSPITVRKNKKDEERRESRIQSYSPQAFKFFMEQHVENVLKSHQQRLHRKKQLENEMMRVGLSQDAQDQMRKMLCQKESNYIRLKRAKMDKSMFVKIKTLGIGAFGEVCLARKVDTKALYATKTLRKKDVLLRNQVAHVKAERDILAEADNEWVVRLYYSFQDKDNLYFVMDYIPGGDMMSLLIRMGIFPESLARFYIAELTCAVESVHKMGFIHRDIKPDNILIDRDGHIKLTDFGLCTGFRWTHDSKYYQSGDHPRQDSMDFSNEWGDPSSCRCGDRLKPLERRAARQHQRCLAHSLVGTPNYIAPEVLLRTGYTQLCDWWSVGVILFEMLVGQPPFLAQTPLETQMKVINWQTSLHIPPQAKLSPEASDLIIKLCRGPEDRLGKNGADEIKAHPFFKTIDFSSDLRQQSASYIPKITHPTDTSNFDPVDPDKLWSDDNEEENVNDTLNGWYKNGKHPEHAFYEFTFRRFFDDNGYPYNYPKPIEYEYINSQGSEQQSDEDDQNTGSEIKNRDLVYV
Chain of LATS1 (Q7L9L4 whole entry partner, looked up): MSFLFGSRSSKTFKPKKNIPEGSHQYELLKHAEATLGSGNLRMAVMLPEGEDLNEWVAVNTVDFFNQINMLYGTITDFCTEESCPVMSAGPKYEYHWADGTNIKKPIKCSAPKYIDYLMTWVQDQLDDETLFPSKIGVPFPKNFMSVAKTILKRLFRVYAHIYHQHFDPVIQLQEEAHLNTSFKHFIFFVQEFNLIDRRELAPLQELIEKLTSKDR

[4] = test system: Ki67-positive hepatocytes; assay: In vivo treatment of mice: immunohistochemistry (IHC) for Ki67 in liver; conditions: mouse liver, single oral dose 30 mg/kg, 24 h post-dose, relative to vehicle, mean+/-SEM
Procedure: (§1) All animal studies were carried out in accordance with federal, state, local and institutional guidelines governing the use of laboratory animals in research. Male C57BL/6J mice (age 8-10 weeks) were purchased from Jackson Labs (Bar Harbor, Me.). Example 46 was formulated for oral dosing at 3 mg/ml, and Example 261 at 1 mg/ml, in a suspension of methylcellulose:Tween80:Water (0.5:0.5:99). Single oral dose of either compound was at 10 mL/kg body weight. Blood and liver tissue were collected under deep anesthesia (isoflurane) at either 2 h post-dose (for mRNA analysis) or 24 h post-dose (for immunohistochemistry).
Liver tissue was fixed in 10% neutral buffered formalin for 24-48 h. Processing and embedding in paraffin was by standard procedures. Sections were cut at 5 microns thickness and stained using a Ventana automated system. Primary antibody for mouse Ki67 was a rabbit IgG (Bethyl Labs). Ki67-positive hepatocytes were quantified by image analysis using the HALO platform. At least 3 sections per animal were analyzed, from the middle of the medial lobe.

[5] = test system: YAP nuclear translocation in HaCaT cells; assay: YAP Translocation Assay (HaCaT Cells); format: cell-based, human; conditions: Homo sapiens, 24 hours
Summary of the method: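 HaCaT cells (20,000/well) in DMEM + 10% FBS were plated overnight at 37° C, then exposed to compound for 24 h at 37° C. Cells were fixed with PFA, permeabilized with 0.1% Triton/1.5% BSA and imaged by high-content imaging.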

[6] = test system: Cyr61 mRNA in liver; assay: In vivo treatment of mice: quantitative RT-PCR, Cyr61; conditions: mouse liver, single oral dose 30 mg/kg, 2 h post-dose, relative to vehicle, mean+/-SEM
Procedure: as §1
(§2) Total liver RNA was isolated from tissue after storage in RNAlater reagent (Qiagen), using a TRIzol method according to the manufacturer's instructions (Life Technologies). Relative mRNA abundance was measured by quantitative RT-PCR using TaqMan gene expression assays and reagents according to standard protocols (Applied Biosystems). Mouse probes for YAP target genes were CTGF (Mm01192933_g1) and Cyr61 (Mm00487498_m1). […] Relative changes in mRNA were calculated by the ΔΔCt method. Changes in gene expression with compound treatment are expressed as fold-change relative to the vehicle group.

[7] = test system: CTGF mRNA in liver; assay: In vivo treatment of mice: quantitative RT-PCR, CTGF; conditions: mouse liver, single oral dose 30 mg/kg, 2 h post-dose, relative to vehicle, mean+/-SEM
Procedure: as §1, §2

[8] = test system: Phospho-YAP (SER127) in liver tissue; assay: In vivo treatment of mice: Phospho-YAP (pYAP) HTRF in liver tissue; conditions: mouse liver, single oral dose 30 mg/kg
Procedure: as §1
Frozen liver tissue was transferred into a Lysing Matrix tube (MP, cat #6913-500) with a 1:50 solution of Protease inhibitor (Sigma-Aldrich, cat #P8340) in Phosphosafe extraction buffer (Novagen, cat #71296-3) and homogenized using the FastPrep-24 (MP biomedicals). […] The protein concentration was measured using the BCA Protein Assay Kit (Pierce cat. 23227) following the manufacturer's protocol. […] The same input quantity was used for each sample, based on total protein content (30-60 ug per sample per well). […] Plates were read on an EnVision (PerkinElmer) with emission wavelengths of 665 nm & 620 nm. The HTRF signal ratio was calculated as Signal(665 nm)/Signal(620 nm))×10000 as specified in the manufacturer's protocol. […]

SMILES: CC(N(C)c1nc(-c2ccncc2)nc2cnccc12)C(F)(F)F (racemic) [Example 47, N-methyl-2-(pyridin-4-yl)-N-(1,1,1-trifluoropropan-2-yl)pyrido[3,4-d]pyrimidin-4-amine]
expression of CD73, CD44, CD166 and CD105 by FACS [1]: low levels
differentiation of expanded LSCs into corneal epithelium cells (keratin 12) [2]: can differentiate into corneal epithelium cells

IC50 [3]: > 2.5 µM
SMILES: c1cc(-c2nc(NCCCc3nnn[nH]3)c3ccncc3n2)ccn1 [Example 46, 2-(pyridin-4-yl)-N-[3-(1H-1,2,3,4-tetrazol-5-yl)propyl]pyrido[3,4-d]pyrimidin-4-amine]
Ki67 IHC (fold-change) [4]: 3.3 (+/−0.2) fold-change
EC50 [5]: > 20 µM
Cyr61 mRNA (fold-change) [6]: 3.5 (+/−0.5) fold-change
CTGF mRNA (fold-change) [7]: 2.1 (+/−0.4) fold-change
pYAP (% of control) [8]: 64 % of control
